Patent publication US9181241B2, “Antagonists of chemokine receptors” (ChemoCentryx, Inc., priority 2012, dated 2015)
pIC50: −log10 of the molar value.

Legend:
[1] = biological target: T1, CCR1 (Homo sapiens, UniProt P32246); assay: Chemotaxis assay (CTX): inhibition of CCR1 mediated migration of THP-1 or monocyte cells; format: cell-based; settings: class symbols; activity for either the chemotaxis assay or binding assay
T1 construct: host or cells: THP-1 cells or isolated human CD14+ monocytes
T1 sequence (P32246 1-355): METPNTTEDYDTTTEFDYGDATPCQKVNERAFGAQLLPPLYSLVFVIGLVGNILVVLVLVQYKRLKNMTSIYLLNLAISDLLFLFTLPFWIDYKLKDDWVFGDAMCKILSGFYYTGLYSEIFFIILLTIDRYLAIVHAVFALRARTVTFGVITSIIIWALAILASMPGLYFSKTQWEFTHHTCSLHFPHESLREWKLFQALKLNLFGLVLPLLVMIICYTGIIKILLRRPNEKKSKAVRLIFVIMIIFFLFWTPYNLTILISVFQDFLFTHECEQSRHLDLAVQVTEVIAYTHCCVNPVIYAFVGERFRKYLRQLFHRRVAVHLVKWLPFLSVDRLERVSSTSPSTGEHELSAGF
Procedure: THP-1 cells were obtained from ATCC (TIB-202) and cultured as a suspension in RPMI-1640 medium supplemented with 2 mM L-glutamine, 1.5 g/L sodium bicarbonate, 4.5 g/L glucose, 10 mM HEPES, 1 mM sodium pyruvate, 0.05% 2-mercaptoethanol and 10% FBS. Cells were grown under 5% CO2/95% air, 100% humidity at 37° C. and subcultured twice weekly at 1:5 (cells were cultured at a density range of 2×10^5 to 2×10^6 cells/mL) and harvested at 1×10^6 cells/mL. THP-1 cells express CCR1 and can be used in CCR1 binding and functional assays.
Monocytes were isolated from human buffy coats using the Miltenyi bead isolation system (Miltenyi, Auburn, Calif.). Briefly, following a Ficoll gradient separation to isolate peripheral blood mononuclear cells, cells were washed with PBS and the red blood cells lysed using standard procedures. Remaining cells were labeled with anti-CD14 antibodies coupled to magnetic beads (Miltenyi Biotech, Auburn, Calif.). Labeled cells were passed through AutoMACS (Miltenyi, Auburn, Calif.) and positive fraction collected. Monocytes express CCR1 and can be used in CCR1 binding and functional assays.
Chemotaxis assays were performed using 5 μm pore polycarbonate, polyvinylpyrrolidone-coated filters in 96-well chemotaxis chambers (Neuroprobe; Gaithersburg, Md.) using chemotaxis buffer (Hank's balanced salt solution (HBSS) and 1% FBS). CCR1 chemokine ligands (i.e., MIP-1α, CCL15/Leukotactin; R&D Systems; Minneapolis, Minn.) are use to evaluate compound mediated inhibition of CCR1 mediated migration. Other chemokines (i.e., SDF-1α; R&D Systems; Minneapolis, Minn.) are used as specificity controls. The lower chamber was loaded with 29 μl of chemokine (i.e., 0.1 nM CCL15/Leukotactin) and varying amounts of compound; the top chamber contained 100,000 THP-1 or monocyte cells in 20 μl. The chambers were incubated 1-2 hours at 37° C., and the number of cells in the lower chamber quantified either by direct cell counts in five high powered fields per well or by the CyQuant assay (Molecular Probes), a fluorescent dye method that measures nucleic acid content, and by measuring with a Spectrafluor Plus (Tecan). The computer program Prism from GraphPad, Inc. (San Diego, Calif.) was used to calculate IC50 values. IC50 values are those compound concentrations required to inhibit the number of cells responding to a CCR1 agonist by 50%.

[2] = tested on: inflammatory cells recruited to the inflamed synovial fluid of the knee joints; assay: Rabbit model of destructive joint inflammation (rabbit LPS study); format: in vivo, New Zealand rabbits; settings: intra-articular LPS 10 ng, dosed orally 2 hours before and 4 hours after LPS, lavage at sixteen hours
Procedure: A rabbit LPS study was conducted essentially as described in Podolin, et al. J. Immunol. 169(11):6435-6444 (2002). Female New Zealand rabbits (approximately 2 kilograms) were treated intra-articularly in both knees with LPS (10 ng). The compound of interest, for example 1.016, (formulated in 1% methocel) or vehicle (1% methocel) was dosed orally at a 5 ml/kg dose volume at two times (2 hours before the intra-articular LPS injection and 4 hours after the intra-articular LPS injection). Sixteen hours after the LPS injection, knees were lavaged and cells counts were performed. Beneficial effects of treatment were determined by reduction in the number of inflammatory cells recruited to the inflamed synovial fluid of the knee joints.

pIC50 [1]	SMILES	reduction in the number of inflammatory cells recruited to the inflamed synovial fluid of the knee joints [2]
> 6.00	Cc1c(Cl)c(C(F)F)nn1CC(=O)N1CCCc2c1cnn2-c1ccc(F)cc1	–
–	Cc1c(Cl)c(C(F)(F)F)nn1C(CO)C(=O)N1CCCc2c1cnn2-c1ccc(F)cc1 (stereo not drawn) [Example 1.016]	significant reduction in recruited inflammatory cells
> 6.00	Cc1c(Cl)c(C(F)(F)F)nn1C(CO)C(=O)N1CCCc2c1cnn2-c1ccc(F)cc1 (stereo not drawn) [drawing 103]	–
